Assay results published in PubChem BioAssay (NCI).
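Interpolation was linear, between the two tested concentrations surrounding the appropriate level; five concentrations were tested over 48 hours in 96-well plates. Abbreviation: GI50, concentration required for 50% inhibition of growth. TGI: total growth inhibition.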

Experiments:
Test in all cases: DTP human tumour cell line panel, 48 h
HCC-2998 colon = tested on: HCC-2998 colon
HCT-15 colon = tested on: HCT-15 colon
A498 renal = tested on: A498 renal
T-47D breast = tested on: T-47D breast
HT29 colon = tested on: HT29 colon
SK-MEL-5 melanoma = tested on: SK-MEL-5 melanoma
ACHN renal = tested on: ACHN renal
SF-295 CNS = tested on: SF-295 CNS
MOLT-4 leukemia = tested on: MOLT-4 leukemia
MDA-MB-468 breast = tested on: MDA-MB-468 breast
MALME-3M melanoma = tested on: MALME-3M melanoma
SNB-75 CNS = tested on: SNB-75 CNS
NCI-H522 lung = tested on: NCI-H522 lung
IGROV1 ovarian = tested on: IGROV1 ovarian
NCI-H23 lung = tested on: NCI-H23 lung
OVCAR-3 ovarian = tested on: OVCAR-3 ovarian
LOX IMVI melanoma = tested on: LOX IMVI melanoma
M14 melanoma = tested on: M14 melanoma
TK-10 renal = tested on: TK-10 renal
RXF 393 renal = tested on: RXF 393 renal
SK-MEL-2 melanoma = tested on: SK-MEL-2 melanoma
OVCAR-5 ovarian = tested on: OVCAR-5 ovarian
SF-539 CNS = tested on: SF-539 CNS
U251 CNS = tested on: U251 CNS
786-0 renal = tested on: 786-0 renal
UACC-257 melanoma = tested on: UACC-257 melanoma
HOP-62 NSCLC = tested on: HOP-62 NSCLC
A549 NSCLC = tested on: A549 NSCLC
UO-31 renal = tested on: UO-31 renal

CC(=C(c1ccc(OCCCN(C)C)cc1)c1ccc(OCCCN(C)C)cc1)c1ccccc1
GI50 (HCC-2998 colon): 570 nM
TGI (HCC-2998 colon): 2080 nM
GI50 (HCT-15 colon): 635 nM
TGI (HCT-15 colon): 2290 nM
GI50 (A498 renal): 3900 nM
TGI (A498 renal): 7220 nM
GI50 (T-47D breast): 327 nM
TGI (T-47D breast): 688 nM
GI50 (HT29 colon): 385 nM
TGI (HT29 colon): 917 nM
GI50 (SK-MEL-5 melanoma): 363 nM
TGI (SK-MEL-5 melanoma): 679 nM
GI50 (ACHN renal): 473 nM
TGI (ACHN renal): 1040 nM
GI50 (SF-295 CNS): 403 nM
TGI (SF-295 CNS): 848 nM
GI50 (MOLT-4 leukemia): 627 nM
TGI (MOLT-4 leukemia): 2430 nM
GI50 (MDA-MB-468 breast): 358 nM
TGI (MDA-MB-468 breast): 805 nM
GI50 (MALME-3M melanoma): 343 nM
TGI (MALME-3M melanoma): 640 nM
GI50 (SNB-75 CNS): 804 nM
TGI (SNB-75 CNS): 4090 nM
GI50 (NCI-H522 lung): 354 nM
TGI (NCI-H522 lung): 746 nM
GI50 (IGROV1 ovarian): 1170 nM
TGI (IGROV1 ovarian): 4020 nM
GI50 (NCI-H23 lung): 2480 nM
TGI (NCI-H23 lung): 5300 nM
GI50 (OVCAR-3 ovarian): 454 nM
TGI (OVCAR-3 ovarian): 1280 nM
GI50 (LOX IMVI melanoma): 380 nM
TGI (LOX IMVI melanoma): 706 nM
GI50 (M14 melanoma): 386 nM
TGI (M14 melanoma): 768 nM
GI50 (TK-10 renal): 714 nM
TGI (TK-10 renal): 3560 nM
GI50 (RXF 393 renal): 339 nM
TGI (RXF 393 renal): 874 nM
GI50 (SK-MEL-2 melanoma): 3010 nM
TGI (SK-MEL-2 melanoma): 6160 nM
GI50 (OVCAR-5 ovarian): 1160 nM
TGI (OVCAR-5 ovarian): 4110 nM
GI50 (SF-539 CNS): 353 nM
TGI (SF-539 CNS): 660 nM
GI50 (U251 CNS): 461 nM
TGI (U251 CNS): 1020 nM
GI50 (786-0 renal): 352 nM
TGI (786-0 renal): 736 nM
GI50 (UACC-257 melanoma): 360 nM
TGI (UACC-257 melanoma): 699 nM
GI50 (HOP-62 NSCLC): 2620 nM
TGI (HOP-62 NSCLC): 5930 nM
GI50 (A549 NSCLC): 753 nM
TGI (A549 NSCLC): 3180 nM
GI50 (UO-31 renal): 360 nM
TGI (UO-31 renal): 733 nM
